{"source": "patent US20050233405A1", "about": "“Inhibitors of caspase-3-mediated cleavage of essential ventricular myosin light chain” (ProCorde GmbH, priority 2002, published 2005)", "molecules": {"B1": {"name": "p35: potent caspase inhibitor p35, given by adenovirus-mediated gene delivery (protein, UniProt P08160 1-299, looked up)", "Early 35 kDa protein": "MCVIFPVEIDVSQTIIRDCQVDKQTRELVYINKIMNTQLTKPVLMMFNISGPIRSVTRKNNNLRDRIKSKVDEQFDQLERDYSDQMDGFHDSIKYFKDEHYSVSCQNGSVLKSKFAKILKSHDYTDKKSIEAYEKYCLPKLVDERNDYYVAVCVLKPGFENGSNQVLSFEYNPIGNKVIVPFAHEINDTGLYEYDVVAYVDSVQFDGEQFEEFVQSLILPSSFKNSEKVLYYNEASKNKSMIYKALEFTTESSWGKSEKYNWKIFCNGFIYDKKSKVLYVKLHNVTSALNKNVILNTIK", "modifications": "adenovirus-delivered"}}, "key": {"caspase-3": {"target": "T1, caspase-3 (Homo sapiens, UniProt P42574)", "T1 sequence (P42574 29-175 limits assumed)": "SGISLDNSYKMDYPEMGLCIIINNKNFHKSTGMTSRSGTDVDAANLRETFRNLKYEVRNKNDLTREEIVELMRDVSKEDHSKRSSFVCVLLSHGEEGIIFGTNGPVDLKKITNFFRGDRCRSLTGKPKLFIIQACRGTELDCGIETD", "T1 sequence (P42574 176-277 limits assumed)": "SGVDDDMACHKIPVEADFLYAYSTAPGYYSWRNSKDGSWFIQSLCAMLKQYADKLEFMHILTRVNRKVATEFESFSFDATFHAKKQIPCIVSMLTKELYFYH", "conditions": "chromogenic peptide substrates; J Biol Chem. 1997 Apr 11; 272(15):9677-82; cited from earlier work"}, "calpain-I": {"target": "T2, calpain-I (Homo sapiens, UniProt P07384)", "T2 sequence (P07384 1-714)": "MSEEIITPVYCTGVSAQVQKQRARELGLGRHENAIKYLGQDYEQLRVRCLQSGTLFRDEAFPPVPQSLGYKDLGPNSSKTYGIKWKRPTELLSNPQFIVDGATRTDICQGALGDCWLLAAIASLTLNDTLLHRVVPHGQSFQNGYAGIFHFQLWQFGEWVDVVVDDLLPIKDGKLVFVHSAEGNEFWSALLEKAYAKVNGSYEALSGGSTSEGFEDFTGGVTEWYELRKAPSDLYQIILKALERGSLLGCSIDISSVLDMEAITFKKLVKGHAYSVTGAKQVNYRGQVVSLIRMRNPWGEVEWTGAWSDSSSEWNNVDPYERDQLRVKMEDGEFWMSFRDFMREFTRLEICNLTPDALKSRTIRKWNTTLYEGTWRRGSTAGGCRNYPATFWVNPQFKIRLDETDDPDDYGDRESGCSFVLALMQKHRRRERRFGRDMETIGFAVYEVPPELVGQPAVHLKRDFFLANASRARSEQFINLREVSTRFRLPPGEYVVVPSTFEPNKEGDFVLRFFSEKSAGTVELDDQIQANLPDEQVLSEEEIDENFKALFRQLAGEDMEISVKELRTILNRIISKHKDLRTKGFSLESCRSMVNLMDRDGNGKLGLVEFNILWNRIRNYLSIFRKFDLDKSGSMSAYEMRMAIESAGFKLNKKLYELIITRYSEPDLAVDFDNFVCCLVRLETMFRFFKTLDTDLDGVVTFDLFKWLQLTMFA", "T2 sequence (P04632 1-268 partner)": "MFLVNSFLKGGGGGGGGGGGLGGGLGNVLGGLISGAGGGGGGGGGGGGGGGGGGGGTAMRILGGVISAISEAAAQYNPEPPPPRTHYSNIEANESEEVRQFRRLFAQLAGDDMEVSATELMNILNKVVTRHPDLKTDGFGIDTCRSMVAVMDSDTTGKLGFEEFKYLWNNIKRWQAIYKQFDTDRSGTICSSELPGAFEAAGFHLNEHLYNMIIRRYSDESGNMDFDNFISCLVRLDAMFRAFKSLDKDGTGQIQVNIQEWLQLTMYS", "experiment": "Ac-DFVE-AMC cleavage by calpain-I", "type": "biochemical", "conditions": "physiological substrate concentrations", "source_text": "(§1) FIG. 8: Effect of different proteases—other caspases and calpain—on cleavage of the peptide substrate Ac-DFVE-AMC. The 1/KM-value for caspase-3 was normalized to 1, and 1/KM-values of other caspases/proteases are shown in relation to that value. […] The functional proteolytic activity of all proteases used was confirmed with the typical peptide substrate of each protease.\n(§2) As p35 inhibits all effector caspases (subtypes 1,3,6,7,8 and 10; e.g., Zhou et al., Biochemistry 1998; 37:10757), our concern was whether the observed beneficial effects of p35 in heart failure were really due to inhibition of caspase-3 and of the structurally almost identical caspase-7. Especially, we sought to exclude that the decrease in vMLC1 cleavage in the presence of p35 was due to predominant inhibition of a different caspase, and to exclude that the cleavage of vMLC1 was induced by caspase-3 only indirectly acting via other effector caspases. Therefore, we tested all these enzymes for their capacity to cleave Ac-DFVE-AMC. […] However, the highly homologous caspase-7 cleaved the new substrate DFVE with almost 1 log scale lower affinity compared to caspase-3."}, "caspase-7": {"target": "T3, caspase-7 (Homo sapiens, UniProt P55210)", "T3 sequence (P55210 24-198 limits assumed)": "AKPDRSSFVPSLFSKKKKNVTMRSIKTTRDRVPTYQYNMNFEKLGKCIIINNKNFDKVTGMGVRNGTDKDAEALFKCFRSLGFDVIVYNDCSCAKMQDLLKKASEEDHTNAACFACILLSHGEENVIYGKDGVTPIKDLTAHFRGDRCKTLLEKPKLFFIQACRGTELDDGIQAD", "T3 sequence (P55210 207-303 limits assumed)": "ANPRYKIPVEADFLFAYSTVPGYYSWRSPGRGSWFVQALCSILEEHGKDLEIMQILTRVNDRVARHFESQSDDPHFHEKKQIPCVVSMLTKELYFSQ", "experiment": "Fluorimetric peptide substrate cleavage assay, caspase-7", "type": "biochemical", "conditions": "for cleavage of peptide substrate by caspase-7: fluorimetric in vitro assay", "source_text": "as §1\nTo this end, fluorimetric in vitro assays using the specific cleavage sites coupled to indicator dyes were established. Caspase-3 and the structurally almost identical caspase-7 (Wei et al., 2000) cleaved both substrates, DEVD and DFVE, with a highly reproducible Michaelis-Menten kinetic. […] We measured a KM-value for DEVD which compared well to existing literature data (Table 1), whereas the KM-value for DFVE was in the range of some other rare substrates of caspase-3 (Table 1). This differential substrate affinity allows to screen for specific inhibitors of vMLC1 cleavage, which would, however, not affect the cleavage of most other known substrates of caspase-3 and 7.\nas §2"}, "[1]": {"target": "T4, recombinant human caspase-3 (CPP32) (Homo sapiens, UniProt P42574)", "T4 construct": "purified, active recombinant human caspase-3 (CPP32); purchased BD Biosciences Pharmingen, Heidelberg, Germany", "T4 sequence (P42574 29-175 limits assumed)": "T1 sequence (P42574 29-175 limits assumed)", "T4 sequence (P42574 176-277 limits assumed)": "T1 sequence (P42574 176-277 limits assumed)", "experiment": "Fluorimetric peptide substrate cleavage assay, caspase-3", "type": "biochemical", "conditions": "fluorimetric in vitro assay", "experimental": "The rate of caspase-3 enzyme activity could be measured by enzymatic cleavage and release of AMC from the Ac-DEVD-AMC caspase substrate (Biosyntan, Berlin, Germany). This parameter was measured as emission at 460 nm upon excitation at 380 nm using U.V. spectrofluorometry.\nAc-DFVE-AMC was synthesized by Biosyntan, Berlin, Germany, with a purity of 93.5%. The peptide lyophilised as trifluoracetic acid salt was reconstituted in DMSO to 100 mM. 5 μg of purified, active recombinant human caspase-3 (CPP32) from BD Biosciences Pharmingen, Heidelberg, Germany, were diluted in 100 μl 50 mM Tris, pH 8.0, with 100 mM NaCl, 50 mM imidazole.\nThe reaction buffer contained 20 mM HEPES, 100 mM NaCl, 10 mM DTT, 1 mM EDTA, 0.1 % (w/v) CHAPS, 10% sucrose, pH 7.2 and the indicated concentrations of Ac-DFVE-AMC. Caspase-3 was added to reaction mixture at a final concentration of 3 nM.\nAfter preincubation for 10 min at 37° C., the released fluorogenic AMC was monitored every second minute for 20 min in a spectrofluorometer at an excitation wavelength of 380 nm and an emission wavelength of 460 nm.\nInitial velocities and substrate concentrations were fit by non linear regression to the Michaelis-Menten equation. Lineweaver-Burk plots were calculated."}, "other caspases": {"system": "other caspases", "experiment": "Ac-DFVE-AMC cleavage by other caspases", "type": "biochemical", "conditions": "physiological substrate concentrations", "source_text": "as §1, §2"}, "[2]": {"system": "caspase-3 activation in failing myocardium", "conditions": "rabbit CHF, rapid ventricular pacing; Laugwitz et al., 2001; cited from earlier work"}}, "note": "*: point of attachment. pNA = O=[N+]([O-])c1ccc(N*)cc1; AMC = Cc1cc(=O)oc2cc(N*)ccc12", "data": [{"molecule": "Ac-YEVD-pNA", "values": [{"measurement": "Km", "setting": "caspase-3", "value": 370, "unit": "µM"}]}, {"molecule": "Ac-VQVD-pNA", "values": [{"measurement": "Km", "setting": "caspase-3", "value": 510, "unit": "µM"}]}, {"molecule": "Ac-DFVE-{AMC}", "values": [{"measurement": "cleavage of substrate by calpain-I", "setting": "calpain-I", "value": "no cleavage was detectable"}, {"measurement": "cleavage of peptide substrate by caspase-7", "setting": "caspase-7", "value": "can specifically cleave"}, {"measurement": "affinity of caspase-7 for the substrate, lower compared to caspase-3", "setting": "caspase-7; relative to caspase-3", "value": "~1", "unit": "log scale"}, {"measurement": "cleavage of peptide substrate by caspase-3", "setting": "[1]", "value": "can specifically cleave"}, {"measurement": "cleavage of substrate by other caspases", "setting": "other caspases", "value": "no cleavage was detectable"}]}, {"molecule": "Ac-DEVD-AMC", "values": [{"measurement": "cleavage of peptide substrate by caspase-7", "setting": "caspase-7", "value": "cleaved"}, {"measurement": "cleavage of peptide substrate by caspase-3", "setting": "[1]", "value": "cleaved"}]}, {"molecule": "Ac-DQMD-pNA", "values": [{"measurement": "Km", "setting": "caspase-3", "value": 44, "unit": "µM"}]}, {"molecule": "Ac-VEID-pNA", "values": [{"measurement": "Km", "setting": "caspase-3", "value": 250, "unit": "µM"}]}, {"molecule": "Ac-DEVD-pNA", "values": [{"measurement": "Km", "setting": "caspase-3", "value": 11, "unit": "µM"}]}, {"molecule": "Ac-VDVAD-pNA", "values": [{"measurement": "Km", "setting": "caspase-3", "value": 67, "unit": "µM"}]}, {"molecule": "B1", "values": [{"measurement": "effect of in vivo transcoronary gene delivery in failing myocardium", "setting": "[2]", "value": "positive impact on sarcomeric organization and contractile performance"}]}]}
